The text below walks through data of a melting point compilation (Tetko et al.; mined from patent text by program, amines drawn as free bases though some values may be those of a salt).

Each structure is given as a SMILES string.

As a reminder, the melting point is the temperature of the solid-liquid transition.

Molecule `CS(=O)(=O)Nc1cnccc1CCCOc1cccnc1Oc1cccc(Cl)c1` had a melting point of 131 to 133 °C. As for `Cc1ccc(Nc2nnc(-c3ccc(SC(F)(F)F)cc3)s2)cc1Cl`, the figure is 215 to 216 °C. Consider `COc1ccc2nc3sc(C(=O)O)cn3c(=O)c2c1`, for which the melting point was in the range of 247 to 248 °C. `CNC(=S)NCCSCc1nc2ccccc2[nH]1` displayed a melting point of 157 to 159 °C.

Take `Cc1ccc2c(c1)c(C=O)c(Cl)n2C`: the melting point lay in the range of 120 to 121 °C.

The molecule `[N-]=[N+]=NCC(=O)Nc1ccc(S(=O)(=O)c2cccc(Cl)c2)cc1` gave a melting point of 125 to 126 °C. As for `Cc1nc(-n2ccc(O)cc2=O)sc1C(=O)NCC1CC1`, the figure is 240 to 242 °C; as for `Brc1ccc2scnc2c1`, 104 to 106 °C. As for `N#Cc1cnn(-c2ncc(C(F)(F)F)cc2Cl)c1C=CC(=O)O`, the figure is 225 to 228 °C.

Consider `COc1ccc(C)cc1NC(=O)Nc1ccc(N2CCN(C(=O)Nc3ccc(OCC(O)CO)cc3C)CC2)cc1` (centres undefined), for which the melting point was 148 to 150 °C. Molecule `CS(=O)(=O)CC(=O)NC(=O)N1CC1C#N` (centres undefined) gave a melting point of 126 to 128 °C.

In the case of `CCOc1cc([N+](=O)[O-])c2c(c1)C1(C)CCN(C)C1N2C` (centres undefined), the melting point fell in the range of 106 to 108 °C. As for `CSCc1cnc(Cl)nc1`, the figure is 56 to 57 °C; as for `CCOc1cc(-c2cc(C(F)(F)F)n3ncc(C(=O)Nc4nc(C)c(S(=O)(=O)NC(C)(CO)CO)s4)c3n2)ccc1C(F)(F)F`, 220 °C; as for `CC(C)(C(=O)O)c1cn2nc(CCCN3CCC(OC(c4ccccc4)c4ccccc4)CC3)ccc2n1`, 195 to 205 °C.

Molecule `Nc1ccc(C(=O)CCc2ccc(Cl)c(Cl)c2)cc1` yielded a melting point of 127 to 129 °C. Regarding `Cc1[nH]c2ccccc2c1CCN1CCN(N)CC1`, the melting point was 118 to 120 °C. With `Cc1c(-c2ccccc2)oc2c(OCCCl)cccc2c1=O` the figure was 141 to 142 °C; with `COC(=O)COc1c(Cl)cc(C(=O)CN2CCN(c3ccncc3)CC2)cc1Cl`, 149 to 150 °C.

Turning to `COC(=O)c1csc(C)c1S(=O)(=O)NC(=O)Nc1nc(C)nc(OC)n1`, the melting point turned out to be 195 °C.

The molecule `COC(=O)c1ccc(CSC)nc1C1=NC(C)(C(C)C)C(=O)N1` (centres undefined) returned a melting point of 114 to 115 °C.

The molecule `COc1ccc(C(=O)Nc2ccccc2)cc1NC(=S)Nc1cc(C)cc(C)c1` came in with a melting point of 203 to 205 °C. As for `Cc1ccc(S(=O)(=O)OC(C#N)(c2ccccc2)C(F)(F)F)cc1` (centres undefined), the figure is 70 °C; as for `C#CCC(CCc1ccccc1)(C(N)=S)c1cccnc1` (centres undefined), 73 to 74 °C; as for `Cc1c(NC(=O)c2cc3c(s2)C(=O)CCC3)cccc1-c1cn(C)c(=O)c(Nc2ccc(C3C(=O)N(C)CCN3C)cc2)n1` (centres undefined), 154 to 155 °C. On to `CN(C)c1ccc(NC(=O)N(C)c2cccc(-c3ccc(CC4SC(=O)NC4=O)cc3)c2)cc1` (centres undefined), for which the melting point worked out at 102 °C. As for `O=C1CC2(C(=O)N1)C(=O)N1CCOc3cc(Cl)cc2c31` (centres undefined), the figure is 260 to 262 °C; as for `CCN(C)c1nc2cc(-c3ccccc3)nnc2c2ccccc12`, 130 to 133 °C. `CCOCCNC(=O)c1ccn2nc(-c3ccccc3)c(-c3ccc(=O)n(C(C)C)n3)c2c1` came in with a melting point of 149 to 150 °C.

In turn, `CCCCCCCCc1ccc(N(c2ccc(CCCCCCCC)cc2)C2(c3ccc(N(C)C)cc3)OC(=O)c3cc(N(C)C)ccc32)cc1` (centres undefined) gave a melting point of 208 to 210 °C. Molecule `CCCc1nn(C)c2c(NCc3ccc(OC)c(Cl)c3)nc(CCC(=O)O)nc12` had a melting point of 178 °C. With `CS(=O)(=O)Nc1cccc(Nc2nc(N3CCC[C@H]3CO)c3nc[nH]c3n2)c1` the figure was 192 to 197 °C; with `Cc1ccc(-c2c(C(=O)Nc3nccs3)nc(-c3cccc4ccccc34)n2C)cc1`, 251 to 252 °C; with `CN(N)C(=O)Nc1ccccc1Oc1ccccc1`, 117 to 119 °C. With `COc1cc(-c2cc(O)c(SCCc3ccccc3)c(=O)o2)ccc1OCc1ccccc1` the figure was 114 to 115 °C; with `C=CCc1cc2c(ccc(=O)n2CC=C(C)C)c(CC=C)c1O`, 187 to 189 °C.

Regarding `COc1cc(C(C)=O)cc(C#N)c1OC`, the melting point is 125 to 126 °C. With `Cc1ccccc1N=NC1=NCCS1` the figure was 79 to 80 °C; with `C=CCNc1c(CO)cnc2cn[nH]c12`, 190 to 192 °C; with `COc1cccc(NN=C(Cl)C(C)=O)c1`, 117 to 119 °C.

Molecule `CCC(C)CCCCCCCCCCCCCCCCC(=O)O` (centres undefined) came in with a melting point of 53 °C. As for `CON=C(C)Cc1sc2ccc(Cl)cc2c1Cl`, the figure is 65 to 68 °C; as for `CCCCCCCCCCNC(=O)OC1CCN(C(=O)OCCCCCCNC(=O)Oc2ccc(Oc3ccccc3)cc2)CC1`, 87 to 91 °C; as for `Cc1cccc2c3c([nH]c12)CCC(N1CCCC1)C3` (centres undefined), 159 to 163 °C. As for `CCOC(=O)C1=C(Nc2ccc(C(=O)OCC)cc2)OCC1=O`, the figure is 152 to 153 °C.

As for `CCCCOc1ccc(-c2ccc3c(c2)C=C(C(=O)Nc2ccc(CN(C)C4CCOCC4)cc2)CCS3(=O)=O)cc1`, the melting point lay in the range of 233 to 236 °C. Molecule `CCCOc1ccc(-c2scc(-c3ccccc3Cl)c2CC(=O)NC(=N)NCCCO)cc1` gave a melting point of 49 to 50 °C. In turn, `COc1ccc(CNc2ccncc2)c2c1OCC2C` (centres undefined) gave a melting point of 138 to 145 °C. As for `Cc1cccc(Sc2cncc3sc(C(N)=O)cc23)c1`, the figure is 171 to 173 °C. With `CCC(=O)Nc1ccnn1-c1c(Cl)cc(Cl)cc1Cl` the figure was 125 °C.

The molecule `CC1(C)OC(=S)Nc2ccc(-c3cc(F)cc(F)c3)cc21` yielded a melting point of 224 to 225 °C. With `C[C@@H](O[Si](C)(C)C(C)(C)C)[C@H]1C(=O)N([Si](C)(C)C(C)(C)C)[C@@H]1CC=O` the figure was 115 to 116 °C; with `CC(C)(C)OC(=O)NC(Cc1c[nH]c2ccccc12)C(=O)CCc1cc(C(F)(F)F)cc(C(F)(F)F)c1` (centres undefined), 138 to 140 °C; with `CN(C)C(=O)CCc1c2n(c(=O)c3ccccc13)CCc1ccccc1-2`, 192 to 194 °C. As for `COC(=O)Nc1nc2cc(C(c3ccc(F)cc3)n3ccnc3C)ccc2[nH]1` (centres undefined), the figure is greater than 300 °C.

The molecule `COC(=O)C(NC(=O)c1ccccc1)C(C)=O` (centres undefined) showed a melting point of 113 °C.

On to `Oc1ccc(Oc2cccc(F)c2)cc1`, for which the melting point was 53 to 55 °C. For `CC(=O)Nc1cccc2c1C(=O)CCCC2`, the melting point was in the range of 155 to 162 °C.

In the case of `CCCOC(Cc1ccc(OCc2nc(C(C)(C)C)oc2C)c2ccccc12)C(=O)O` (centres undefined), the melting point was 169 to 170 °C. As to `CC(Cn1ncnn1)n1nnc2cc3c(=O)n(C4CCC4)nnc3cc2c1=O` (centres undefined), the melting point is 152 to 154 °C.

The molecule `O=S(=O)(CCCl)C1=NN(S(=O)(=O)CCCl)CS1` yielded a melting point of 143 °C. As for `COc1ccc(-c2cnn3c(-c4cccc(NC(=O)CC(C)C)c4)ccnc23)cc1C=O`, the figure is 187 to 189 °C; as for `CCOCCc1cc2c(nc(O)n2CCCCS(C)(=O)=O)c(N)n1`, 203 to 206 °C; as for `CC(C)C[C@@H]1NC(=O)OC1(c1ccccc1)c1ccccc1`, 212 to 214 °C.
